Results published in patent US20230233569A1 (Revolution Medicines, Inc., priority 2020, published 2023).
Like-named read-outs stand apart in the source and are kept apart here.

What was measured:
Assay in all cases: Ras-Raf disruption / FRET / MOA assay (BRAF RBD)
Assay type in all cases: biochemical
KRAS Q61H = KRAS Q61H (Homo sapiens, UniProt P01116+P62937, Q61H)
Summary of the method: (§1)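 TR-FRET in 25 mM HEPES pH 7.3, 100 mM NaCl, 5 mM MgCl2, 0.1% BSA, 0.002% Tween20 with 25 μM Cyclophilin A, 12.5 nM His6-Ras-GMPPNP, 50 nM GST-BRAF RBD; compound 10-point 3-fold series from 30 μM. After 3 h at 25 °C, Eu anti-His/APC anti-GST added for 1.5 h; IC50 from ratio decrease versus DMSO.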

NRAS WT = NRAS WT (Homo sapiens, UniProt P01111+P62937)
Summary of the method: as §1

KRAS G12V = KRAS G12V (Homo sapiens, UniProt P01116+P62937, G12V); conditions: with Cyclophilin A
Summary of the method: as §1

KRAS G13D = KRAS G13D (Homo sapiens, UniProt P01116+P62937, G13D); conditions: with Cyclophilin A
Summary of the method: as §1

NRAS Q61R = NRAS Q61R (Homo sapiens, UniProt P01111+P62937, Q61R)
Summary of the method: as §1

NRAS G12C = NRAS G12C (Homo sapiens, UniProt P01111+P62937, G12C)
Summary of the method: as §1

KRAS G13C = KRAS G13C (Homo sapiens, UniProt P01116+P62937, G13C); conditions: with Cyclophilin A
Summary of the method: as §1

KRAS G12S = KRAS G12S (Homo sapiens, UniProt P01116+P62937, G12S); conditions: with Cyclophilin A
Summary of the method: as §1

NRAS Q61K = NRAS Q61K (Homo sapiens, UniProt P01111+P62937, Q61K)
Summary of the method: as §1

KRAS G12D = KRAS G12D (Homo sapiens, UniProt P01116+P62937, G12D); conditions: with Cyclophilin A
Summary of the method: as §1

KRAS WT = KRAS WT (Homo sapiens, UniProt P01116+P62937); conditions: with Cyclophilin A
Summary of the method: as §1

KRAS G12C = KRAS G12C (Homo sapiens, UniProt P01116+P62937, G12C); conditions: with Cyclophilin A
Summary of the method: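 His6-K-Ras G12C-GMPPNP (12.5 nM), GST-BRAF RBD (50 nM) and tagless Cyclophilin A (25 μM) incubated 3 h at 25 °C with compound (10-point 3-fold series from 30 μM), pH 7.3 HEPES buffer. Anti-His Eu/anti-GST APC added for 1.5 h; decreased TR-FRET ratio vs DMSO gives IC50.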

[1] = KRAS Q61H, read-out: KRAS Q61H FRET data IC50
[2] = NRAS WT, read-out: NRAS WT FRET data IC50
[3] = Ras-Raf disruption, read-out: KRAS G12V FRET data IC50
[4] = Ras-Raf disruption, read-out: KRAS G13D FRET data IC50
[5] = NRAS Q61R, read-out: NRAS Q61R FRET data IC50
[6] = NRAS G12C, read-out: NRAS G12C FRET data IC50
[7] = Ras-Raf disruption, read-out: KRAS G13C FRET data IC50
[8] = Ras-Raf disruption, read-out: KRAS G12S FRET data IC50
[9] = NRAS Q61K, read-out: NRAS Q61K FRET data IC50
[10] = Ras-Raf disruption, read-out: KRAS G12D FRET data IC50
[11] = Ras-Raf disruption, read-out: KRAS WT FRET data IC50
[12] = Ras-Raf disruption, read-out: KRAS G12C FRET data IC50

Sequence of KRAS G12S (P01116 1-169 isoform P01116-2 G12S limits assumed): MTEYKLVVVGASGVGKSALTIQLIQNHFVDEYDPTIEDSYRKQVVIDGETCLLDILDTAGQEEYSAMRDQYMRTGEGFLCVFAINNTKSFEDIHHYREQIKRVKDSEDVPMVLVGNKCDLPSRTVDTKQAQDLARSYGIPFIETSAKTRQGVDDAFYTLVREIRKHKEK
Sequence of KRAS G12S (P62937 whole entry): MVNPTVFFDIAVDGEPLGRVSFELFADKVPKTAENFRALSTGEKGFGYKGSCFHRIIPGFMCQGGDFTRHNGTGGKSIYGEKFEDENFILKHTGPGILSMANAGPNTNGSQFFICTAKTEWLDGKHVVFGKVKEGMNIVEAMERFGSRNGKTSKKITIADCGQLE
Sequence of KRAS WT (P01116 1-169 isoform P01116-2 limits assumed): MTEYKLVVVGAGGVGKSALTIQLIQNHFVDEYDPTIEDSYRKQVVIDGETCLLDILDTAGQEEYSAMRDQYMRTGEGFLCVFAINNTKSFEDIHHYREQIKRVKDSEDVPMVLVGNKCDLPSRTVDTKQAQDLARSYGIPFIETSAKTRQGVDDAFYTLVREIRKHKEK
Sequence of KRAS WT (P62937 whole entry): as the sequence (P62937 whole entry) above
Sequence of KRAS Q61H (P01116 1-169 isoform P01116-2 Q61H limits assumed): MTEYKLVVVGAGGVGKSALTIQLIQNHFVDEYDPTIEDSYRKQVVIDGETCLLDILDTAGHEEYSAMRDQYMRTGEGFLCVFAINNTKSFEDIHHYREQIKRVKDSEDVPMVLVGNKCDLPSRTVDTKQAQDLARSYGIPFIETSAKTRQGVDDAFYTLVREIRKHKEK
Sequence of KRAS Q61H (P62937 whole entry): as the sequence (P62937 whole entry) above
Sequence of KRAS G13C (P01116 1-169 isoform P01116-2 G13C limits assumed): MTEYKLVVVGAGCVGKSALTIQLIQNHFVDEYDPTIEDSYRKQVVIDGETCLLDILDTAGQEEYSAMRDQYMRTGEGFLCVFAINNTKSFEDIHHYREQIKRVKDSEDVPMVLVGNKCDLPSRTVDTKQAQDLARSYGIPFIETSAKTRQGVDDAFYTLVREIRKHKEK
Sequence of KRAS G13C (P62937 whole entry): as the sequence (P62937 whole entry) above
Sequence of NRAS WT (P01111 whole entry): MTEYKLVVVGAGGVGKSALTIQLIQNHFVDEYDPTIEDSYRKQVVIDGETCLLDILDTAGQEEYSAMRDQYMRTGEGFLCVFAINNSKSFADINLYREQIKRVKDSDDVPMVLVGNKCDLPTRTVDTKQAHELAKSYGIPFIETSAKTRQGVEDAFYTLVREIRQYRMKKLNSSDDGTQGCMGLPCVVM
Sequence of NRAS WT (P62937 whole entry): as the sequence (P62937 whole entry) above
Sequence of NRAS Q61K (P01111 whole entry Q61K): as the sequence (P01111 whole entry) above, with Q61K counted along it
Sequence of NRAS Q61K (P62937 whole entry): as the sequence (P62937 whole entry) above
Sequence of KRAS G12D (P01116 1-169 isoform P01116-2 G12D limits assumed): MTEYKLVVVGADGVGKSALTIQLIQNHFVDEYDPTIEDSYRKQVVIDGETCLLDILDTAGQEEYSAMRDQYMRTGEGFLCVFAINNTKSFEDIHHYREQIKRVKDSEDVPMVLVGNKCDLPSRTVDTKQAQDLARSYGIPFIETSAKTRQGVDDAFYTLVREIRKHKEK
Sequence of KRAS G12D (P62937 whole entry): as the sequence (P62937 whole entry) above
Sequence of KRAS G12C (P01116 1-169 isoform P01116-2 G12C limits assumed): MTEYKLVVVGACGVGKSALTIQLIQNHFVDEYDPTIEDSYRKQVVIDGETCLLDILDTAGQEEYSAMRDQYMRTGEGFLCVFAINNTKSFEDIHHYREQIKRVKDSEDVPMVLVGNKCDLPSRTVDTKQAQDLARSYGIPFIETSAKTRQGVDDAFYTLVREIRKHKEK
Sequence of KRAS G12C (P62937 whole entry): as the sequence (P62937 whole entry) above
Sequence of KRAS G12V (P01116 1-169 isoform P01116-2 G12V limits assumed): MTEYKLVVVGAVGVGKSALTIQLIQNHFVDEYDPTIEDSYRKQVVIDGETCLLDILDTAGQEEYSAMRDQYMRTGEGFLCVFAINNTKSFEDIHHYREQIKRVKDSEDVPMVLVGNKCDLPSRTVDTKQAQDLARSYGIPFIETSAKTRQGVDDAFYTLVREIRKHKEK
Sequence of KRAS G12V (P62937 whole entry): as the sequence (P62937 whole entry) above
Sequence of NRAS Q61R (P01111 whole entry Q61R): as the sequence (P01111 whole entry) above, with Q61R counted along it
Sequence of NRAS Q61R (P62937 whole entry): as the sequence (P62937 whole entry) above
Sequence of NRAS G12C (P01111 whole entry G12C): as the sequence (P01111 whole entry) above, with G12C counted along it
Sequence of NRAS G12C (P62937 whole entry): as the sequence (P62937 whole entry) above
Sequence of KRAS G13D (P01116 1-169 isoform P01116-2 G13D limits assumed): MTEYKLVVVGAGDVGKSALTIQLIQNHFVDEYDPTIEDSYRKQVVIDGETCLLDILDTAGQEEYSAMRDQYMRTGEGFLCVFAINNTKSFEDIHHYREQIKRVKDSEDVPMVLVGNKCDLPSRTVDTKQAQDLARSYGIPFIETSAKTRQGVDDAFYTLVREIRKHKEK
Sequence of KRAS G13D (P62937 whole entry): as the sequence (P62937 whole entry) above

For `CCn1c(-c2cccnc2[C@H](C)OC)c2c3cc(ccc31)-c1csc(n1)C[C@H](NC(=O)[C@H](C(C)C)N(C)C(=O)N(C)C1CN(C(=O)[C@H]3CN3)C1)C(=O)N1CCC[C@H](N1)C(=O)OCC(C)(C)C2` [Example 220], the IC50 (KRAS Q61H; [1]) was 10 to 100 nM, the IC50 (NRAS WT; [2]) was 100 to 1000 nM and the IC50 (KRAS G12V; [3]) was 100 to 1000 nM. For the same molecule, the IC50 (KRAS G13D; [4]) was 100 to 1000 nM, the IC50 (NRAS Q61R; [5]) was 100 to 1000 nM and the IC50 (NRAS G12C; [6]) was 100 to 1000 nM. The IC50 (KRAS G13C; [7]) was 100 to 1000 nM, the IC50 (KRAS G12S; [8]) was 100 to 1000 nM and the IC50 (NRAS Q61K; [9]) was 10 to 100 nM. For the same molecule, the IC50 (KRAS G12D; [10]) was 1000 to 10000 nM, the IC50 (KRAS WT; [11]) was 100 to 1000 nM and the IC50 (KRAS G12C; [12]) was 10 to 100 nM.

In the case of `CCn1c(-c2cccnc2[C@H](C)OC)c2c3cc(ccc31)-c1cc(O)cc(c1)C[C@H](NC(=O)[C@H](C(C)C)N(C)C(=O)[C@H]1CCN(C(=O)[C@H]3CN3)[C@H]1C)C(=O)N1CCC[C@H](N1)C(=O)OCC(C)(C)C2` (atropisomer, axis not shown) [Example 206], the IC50 (KRAS Q61H; [1]) is reported as 100 to 1000 nM, the IC50 (NRAS WT; [2]) is reported as 100 to 1000 nM and the IC50 (KRAS G12V; [3]) is reported as 100 to 1000 nM. The IC50 (KRAS G13D; [4]) was 100 to 1000 nM, the IC50 (NRAS Q61R; [5]) was 1000 to 10000 nM and the IC50 (NRAS G12C; [6]) was 10 to 100 nM. For the same molecule, the IC50 (KRAS G13C; [7]) was 100 to 1000 nM, the IC50 (KRAS G12S; [8]) was 100 to 1000 nM and the IC50 (NRAS Q61K; [9]) was 1000 to 10000 nM. The IC50 (KRAS G12D; [10]) was 1000 to 10000 nM, the IC50 (KRAS WT; [11]) was 100 to 1000 nM and the IC50 (KRAS G12C; [12]) was 10 to 100 nM.

Molecule `CCOC(=O)[C@H]1O[C@@H]1C(=O)N1CC[C@H](C(=O)N(C)[C@H](C(=O)N[C@H]2Cc3cc(O)cc(c3)-c3ccc4c(c3)c(c(-c3cccnc3[C@H](C)OC)n4CC)CC(C)(C)COC(=O)[C@@H]3CCCN(N3)C2=O)C(C)C)C1` [Example 329] has an IC50 (KRAS Q61H; [1]) of 10 to 100 nM, an IC50 (NRAS WT; [2]) of 10 to 100 nM and an IC50 (KRAS G12V; [3]) of 10 to 100 nM. For the same molecule, the IC50 (KRAS G13D; [4]) was 10 to 100 nM, the IC50 (NRAS Q61R; [5]) was 10 to 100 nM and the IC50 (NRAS G12C; [6]) was under 10 nM. The IC50 (KRAS G13C; [7]) was under 10 nM, the IC50 (KRAS G12S; [8]) was 10 to 100 nM and the IC50 (NRAS Q61K; [9]) was 10 to 100 nM. It also gave an IC50 (KRAS G12D; [10]) of 100 to 1000 nM, an IC50 (KRAS WT; [11]) of 10 to 100 nM and an IC50 (KRAS G12C; [12]) of under 10 nM.

`CCn1c(-c2cccnc2[C@H](C)OC)c2c3cc(ccc31)-c1csc(n1)C[C@H](NC(=O)[C@H](C(C)C)N(C)C(=O)N(C)[C@H]1CCN(C(=O)[C@H]3CN3)C1)C(=O)N1CCC[C@H](N1)C(=O)OCC(C)(C)C2` (atropisomer, axis not shown) [Example 296] showed an IC50 (KRAS Q61H; [1]) of 100 to 1000 nM, an IC50 (NRAS WT; [2]) of 100 to 1000 nM and an IC50 (KRAS G12V; [3]) of 1000 to 10000 nM. For the same molecule, the IC50 (KRAS G13D; [4]) was 1000 to 10000 nM, the IC50 (NRAS Q61R; [5]) was 100 to 1000 nM and the IC50 (NRAS G12C; [6]) was 100 to 1000 nM. For the same molecule, the IC50 (KRAS G13C; [7]) was 100 to 1000 nM, the IC50 (KRAS G12S; [8]) was 100 to 1000 nM and the IC50 (NRAS Q61K; [9]) was 100 to 1000 nM. For the same molecule, the IC50 (KRAS G12D; [10]) was 1000 to 10000 nM, the IC50 (KRAS WT; [11]) was 100 to 1000 nM and the IC50 (KRAS G12C; [12]) was 100 to 1000 nM.

Molecule `CCn1c(-c2cccnc2[C@H](C)OC)c2c3cc(ccc31)-c1cc(O)cc(c1)C[C@H](NC(=O)[C@H](C1CCCC1)N(C)C(=O)CN(C)C(=O)[C@@H]1N[C@@H]1C1CC1)C(=O)N1CCC[C@H](N1)C(=O)OCC(C)(C)C2` [Example 170] has an IC50 (KRAS Q61H) of 10 to 100 nM, an IC50 (NRAS WT) of 10 to 100 nM and an IC50 (KRAS G12V; KRAS G12V FRET data IC50, Ras-Raf disruption) of 10 to 100 nM. For the same molecule, the IC50 (KRAS G13D; KRAS G13D FRET data IC50, Ras-Raf disruption) was 10 to 100 nM, the IC50 (NRAS Q61R) was 10 to 100 nM and the IC50 (NRAS G12C; NRAS G12C FRET data IC50, NRAS G12C) was 10 to 100 nM. The IC50 (KRAS G13C; KRAS G13C FRET data IC50, Ras-Raf disruption) was 10 to 100 nM, the IC50 (KRAS G12S; KRAS G12S FRET data IC50, Ras-Raf disruption) was 10 to 100 nM and the IC50 (NRAS Q61K) was 10 to 100 nM. The IC50 (KRAS G12D; KRAS G12D FRET data IC50, Ras-Raf disruption) was 10 to 100 nM, the IC50 (KRAS WT; KRAS WT FRET data IC50, Ras-Raf disruption) was 10 to 100 nM and the IC50 (KRAS G12C; KRAS G12C FRET data IC50, Ras-Raf disruption) was 10 to 100 nM.

With `CCn1c(-c2cccnc2[C@H](C)OC)c2c3cc(ccc31)-c1csc(n1)C[C@H](NC(=O)[C@H](C(C)C)N(C)C(=O)N1CCC(CN(C)C(=O)[C@H]3CN3)CC1)C(=O)N1CCC[C@H](N1)C(=O)OCC(C)(C)C2` (atropisomer, axis not shown) [Example 326] the IC50 (KRAS Q61H; [1]) was 10 to 100 nM, the IC50 (NRAS WT; [2]) was 10 to 100 nM and the IC50 (KRAS G12V; [3]) was 10 to 100 nM. For the same molecule, the IC50 (KRAS G13D; [4]) was 100 to 1000 nM, the IC50 (NRAS Q61R; [5]) was 10 to 100 nM and the IC50 (NRAS G12C; [6]) was 10 to 100 nM. The IC50 (KRAS G13C; [7]) was 10 to 100 nM, the IC50 (KRAS G12S; [8]) was 10 to 100 nM and the IC50 (NRAS Q61K; [9]) was 10 to 100 nM. For the same molecule, the IC50 (KRAS G12D; [10]) was 100 to 1000 nM, the IC50 (KRAS WT; [11]) was 10 to 100 nM and the IC50 (KRAS G12C; [12]) was 10 to 100 nM.
